According to the CheMixHub viscosity set:
“And” between values parts separate entries of the source, which are not always exact repeats. Equal entries are not always repeated.

Assay: xn = mol fraction of the nth substance listed

Nc1cccc(Cl)c1 + COCCO
303.15 K, 101 kPa
Conditions | viscosity [mPa·s]
x1 = 0.0687 | 2.116
x1 = 0.1403 | 2.27
x1 = 0.238 | 2.434
x1 = 0.3592 | 2.586
x1 = 0.4287 | 2.72
x1 = 0.5233 | 2.844
x1 = 0.6416 | 2.949
x1 = 0.7401 | 3.05
x1 = 0.8794 | 3.143

C1C[C@@H]2[C@H]3CC[C@H](C3)[C@@H]2C1 + CCCCCO
viscosity [mPa·s], 101 kPa
Conditions | x2 = 0.1465 | x2 = 0.2782 | x2 = 0.3987 | x2 = 0.5049 | x2 = 0.6067 | x2 = 0.6985 | x2 = 0.7827 | x2 = 0.8623 | x2 = 0.9326
293.15 K | 2.919 | 2.901 | 2.955 | 3.058 | 3.19 | 3.372 | 3.549 | 3.718 | 3.916
298.15 K | 2.621 | 2.595 | 2.622 | 2.7 | 2.807 | 2.953 | 3.095 | 3.27 | 3.411
303.15 K | 2.379 | 2.346 | 2.354 | 2.41 | 2.487 | 2.607 | 2.726 | 2.852 | 2.971
313.15 K | 1.972 | 1.92 | 1.914 | 1.922 | 1.957 | 2.033 | 2.107 | 2.18 | 2.253

OC[C@@H](O)[C@@H](O[C@H]1O[C@H](CO)[C@@H](O)[C@H](O)[C@H]1O)[C@H](O)[C@@H](O)CO + O
Conditions | viscosity
293.15 K, 100 kPa, x1 = 0.06986 | 60.3 mPa·s
293.15 K, 101.3 kPa, x1 = 0.004 | 1.19 mPa·s
293.15 K, 101.3 kPa, x1 = 0.007 | 1.45 mPa·s
293.15 K, 101.3 kPa, x1 = 0.01 | 1.77 mPa·s
293.15 K, 101.3 kPa, x1 = 0.018 | 2.6 mPa·s
298.15 K, 100 kPa, x1 = 0.07553 | 62 mPa·s
303.15 K, 100 kPa, x1 = 0.08206 | 64 mPa·s
303.15 K, 101 kPa, x1 = 0.003592 | 0.9493 mPa·s
303.15 K, 101.3 kPa, x1 = 0.004 | 0.92 mPa·s
303.15 K, 101.3 kPa, x1 = 0.007 | 1.11 mPa·s
303.15 K, 101.3 kPa, x1 = 0.01 | 1.34 mPa·s
303.15 K, 101.3 kPa, x1 = 0.018 | 1.93 mPa·s
308.15 K, 100 kPa, x1 = 0.08946 | 67 mPa·s
313.15 K, 100 kPa, x1 = 0.09729 | 68 mPa·s
313.15 K, 101.3 kPa, x1 = 0.004 | 0.75 mPa·s
313.15 K, 101.3 kPa, x1 = 0.007 | 0.89 mPa·s
313.15 K, 101.3 kPa, x1 = 0.01 | 1.05 mPa·s and 1.27 mPa·s
313.15 K, 101.3 kPa, x1 = 0.018 | 1.49 mPa·s
318.15 K, 100 kPa, x1 = 0.1055 | 76 mPa·s
323.15 K, 100 kPa, x1 = 0.1147 | 79 mPa·s
323.15 K, 101 kPa, x1 = 0.003592 | 0.6401 mPa·s
323.15 K, 101 kPa, x1 = 0.007153 | 0.7457 mPa·s
323.15 K, 101.3 kPa, x1 = 0.004 | 0.62 mPa·s
323.15 K, 101.3 kPa, x1 = 0.007 | 0.73 mPa·s
323.15 K, 101.3 kPa, x1 = 0.01 | 0.86 mPa·s and 1.05 mPa·s
323.15 K, 101.3 kPa, x1 = 0.018 | 1.19 mPa·s

CC12CCC(CC1)C(C)(C)O2 + COC(C)(C)C
298.15 K, 101.33 kPa
Conditions | viscosity [mPa·s]
x2 = 0.039 | 2.365
x2 = 0.1663 | 1.833
x2 = 0.2659 | 1.491
x2 = 0.379 | 1.188
x2 = 0.4562 | 1.02
x2 = 0.5768 | 0.7958
x2 = 0.6621 | 0.6632
x2 = 0.7385 | 0.5702
x2 = 0.8408 | 0.4604
x2 = 0.902 | 0.4049
x2 = 0.9701 | 0.3547
